Test results from ChEMBL document CHEMBL1201862, “PubChem BioAssay data set” (2004).
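All cell lines were grown in 96-well plates and treated with compound for 48 hours. GI50 = concentration required for 50% inhibition of growth.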 Activity calls are given as the source filed them. Cut-off read from the data, not from the text of the source: active = GI50 up to about 1.1 µM and inactive = higher.

How the values were obtained:
Assay in all cases: inhibition of tumour cell growth, NCI panel, 48 h
HL-60 = system: HL-60
HOP-62 = system: HOP-62
PC-3 = system: PC-3
HOP-92 = system: HOP-92
LOX IMVI = system: LOX IMVI
UACC-257 = system: UACC-257
IGROV-1 = system: IGROV-1
NCI-H460 = system: NCI-H460
OVCAR-8 = system: OVCAR-8
MDA-MB-435 = system: MDA-MB-435
MDA-N = system: MDA-N
NCI-H522 = system: NCI-H522
UO-31 = system: UO-31
786-0 = system: 786-0
MDA-MB-231 = system: MDA-MB-231

Structure (SMILES) | GI50 (HL-60) | GI50 (HOP-62) | GI50 (PC-3) | GI50 (HOP-92) | GI50 (LOX IMVI) | GI50 (UACC-257) | GI50 (IGROV-1) | GI50 (NCI-H460) | GI50 (OVCAR-8) | GI50 (MDA-MB-435) | GI50 (MDA-N) | GI50 (NCI-H522) | GI50 (UO-31) | GI50 (786-0) | GI50 (MDA-MB-231)
c1nc2nc[nH]c(SSc3[nH]cnc4ncnc3-4)c-2n1 | 2.14 µM (inactive) | 0.116 µM (active) | 1.23 µM (inactive) | < 0.01 µM (active) | < 0.0441 µM (active) | 2.63 µM (inactive) | > 22.3 µM (inactive) | 2.65 µM (inactive) | 0.455 µM (active) |  |  |  |  |  | 
COc1nc(-c2cn(S(=O)(=O)c3ccc(C)cc3)c3ccc(Br)cc23)cc(C(F)(F)F)c1C#N | 86.7 µM (inactive) |  | 47.4 µM (inactive) | 31.3 µM (inactive) | 23.7 µM (inactive) | 53.1 µM (inactive) | 28.4 µM (inactive) | > 100 µM (inactive) | 25.6 µM (inactive) | 81.1 µM (inactive) | > 100 µM (inactive) | 47.9 µM (inactive) | 55 µM (inactive) |  | 
CC(C)(C)[Si](C)(C)OCCOCn1cc(F)c(=O)[nH]c1=O | > 100 µM (inactive) | > 100 µM (inactive) | > 100 µM (inactive) |  | > 100 µM (inactive) | > 100 µM (inactive) | > 100 µM (inactive) | > 100 µM (inactive) | > 100 µM (inactive) | > 100 µM (inactive) | > 100 µM (inactive) | > 100 µM (inactive) | > 100 µM (inactive) | > 100 µM (inactive) | 
COc1ccc(N2C(=O)CSC2c2c[nH]c3ccccc23)cc1 (stereo not drawn) | 23.6 µM (inactive) | > 100 µM (inactive) | 24.7 µM (inactive) | 52.7 µM (inactive) | 78.9 µM (inactive) | > 100 µM (inactive) | > 100 µM (inactive) | 32.4 µM (inactive) | 60 µM (inactive) | 41.5 µM (inactive) | 35.2 µM (inactive) | 24.5 µM (inactive) | 49.8 µM (inactive) |  | 72.9 µM (inactive)
S=C(N/N=C(/c1ccccc1)c1ccccn1)Nc1cccc(Cl)c1 | < 0.0277 µM (active) | 1.27 µM (inactive) |  | 1.93 µM (inactive) |  | < 0.0475 µM (active) |  | 0.316 µM (active) | 0.0454 µM (active) | 0.802 µM (active) | 0.557 µM (active) |  | 0.566 µM (active) |  | < 0.0202 µM (active)
N#CC1=C(N)C(C#N)(C#N)C(c2ccc(F)cc2)C=C1C1CC1 (stereo not drawn) | 4.13 µM (inactive) | 13.1 µM (inactive) | 10.2 µM (inactive) | 11.9 µM (inactive) | 3.94 µM (inactive) | 9.12 µM (inactive) | 12.9 µM (inactive) | 5.2 µM (inactive) | 9.93 µM (inactive) | 3.22 µM (inactive) | 2.27 µM (inactive) | 3.78 µM (inactive) | 14 µM (inactive) | 9.84 µM (inactive) | 16.5 µM (inactive)
Nc1ncnc2c1sc1nc3ccccc3n12 |  | > 70.1 µM (inactive) | > 100 µM (inactive) | > 100 µM (inactive) | 4.13 µM (inactive) | > 100 µM (inactive) | 13.4 µM (inactive) | 53.1 µM (inactive) | 60.8 µM (inactive) | > 100 µM (inactive) |  | > 43.2 µM (inactive) | > 77.8 µM (inactive) |  | 44.8 µM (inactive)
Cc1[nH]c(=O)nc(S)c1C(=O)NC1C2CCCCC2NC2CCCCC21 (stereo not drawn) | > 100 µM (inactive) | 17.3 µM (inactive) | 13.2 µM (inactive) | 18.5 µM (inactive) | 27 µM (inactive) | 16.3 µM (inactive) | 15.7 µM (inactive) | 14.4 µM (inactive) | 15.1 µM (inactive) | 6.93 µM (inactive) | 11.5 µM (inactive) |  | 13.8 µM (inactive) |  | 14.9 µM (inactive)
O=C1CC(=O)N(c2ccccc2)N1/C(=C/c1ccccc1)c1ccccc1 |  | 18.5 µM (inactive) | 15.7 µM (inactive) | 13.2 µM (inactive) | 1.6 µM (inactive) | 24.8 µM (inactive) | 15.8 µM (inactive) | 19.8 µM (inactive) | 19.8 µM (inactive) | 18.9 µM (inactive) | 13.6 µM (inactive) |  | 15.7 µM (inactive) |  | 10.6 µM (inactive)
CN1C(=O)[C@@H]2[C@@H]3c4ccccc4N[C@@H]3c3[nH]c4ccccc4c3[C@@H]2C1=O |  | 19.5 µM (inactive) | 17.4 µM (inactive) | 20 µM (inactive) | 20.6 µM (inactive) | 17.9 µM (inactive) | 0.0502 µM (active) | 15.3 µM (inactive) | 21.6 µM (inactive) | 23.3 µM (inactive) | 31.8 µM (inactive) |  | 14.7 µM (inactive) |  | 21 µM (inactive)
Nc1c(Br)cc2c(c1Br)Cc1cc(Br)ccc1-2 |  |  | > 100 µM (inactive) | > 100 µM (inactive) | > 100 µM (inactive) | > 100 µM (inactive) |  | > 100 µM (inactive) | > 100 µM (inactive) | > 100 µM (inactive) | > 100 µM (inactive) | > 100 µM (inactive) | > 100 µM (inactive) |  | > 100 µM (inactive)
